A short description of series [1]: Plasma concentration in ICR (CD-1) mouse at 10 mg/kg, po after 24 hrs. The class given is ADME, organism-based.
Series [2] has as its target Chromatin remodeling regulator CECR2 (Homo sapiens) (UniProt Q9BXF3). The series is described as follows: Inhibition of human partial length CECR2 (P423 to D543 residues) expressed in Escherichia coli BL21 assessed as residual activity at 1 uM after 1 hr by qPCR method relative to control.
In another series the target is Peregrin (Homo sapiens) (UniProt P55201). The series is described as follows: Inhibition of human partial length BRPF1 (E627 to G740 residues) expressed in Escherichia coli BL21 assessed as residual activity at 1 uM after 1 hr by qPCR method relative to control. On the technique in general: Quantitative PCR measures a nucleic acid by following its amplification.
Series [3] addresses SWI/SNF-related matrix-associated actin-dependent regulator of chromatin subfamily A member 2 (Homo sapiens) (UniProt P51531). As to the kind of experiment: Inhibition of human partial length SMARCA2 (S1377 to Q1486 residues) expressed in Escherichia coli BL21 assessed as residual activity at 1 uM after 1 hr by qPCR method relative to control.
Series [4] in a line: Half life in ICR (CD-1) mouse at 10 mg/kg, po. The class given is ADME, organism-based. Particulars: in vivo.
In series [5] the target is Histone acetyltransferase KAT2A (Homo sapiens) (UniProt Q92830). The series is described as follows: Inhibition of human partial length GCN5L2 (E726 to K837 residues) expressed in Escherichia coli BL21 assessed as residual activity at 1 uM after 1 hr by qPCR method relative to control.
The target of series [6] is Bromodomain adjacent to zinc finger domain protein 2A (Homo sapiens) (UniProt Q9UIF9). As to the kind of experiment: Inhibition of human partial length BAZ2A (M1792 to L1905 residues) expressed in Escherichia coli BL21 assessed as residual activity at 1 uM after 1 hr by qPCR method relative to control.
The target of series [7] is Bromodomain-containing protein 4 (Homo sapiens, UniProt O60885). As to the kind of experiment: Inhibition of JQ1-FITC binding to His6-tagged BRD4-BD1 (unknown origin) expressed in Escherichia coli BL21 (DE3)-codon plus-RIL cells incubated in dark for 4 hrs by fluorescence anisotropy assay.
Series [8] has as its target Bromodomain testis-specific protein (Homo sapiens) (UniProt Q58F21). The series is described as follows: Inhibition of human partial length BRDT bromodomain 2 (K250 to E382 residues) expressed in Escherichia coli BL21 assessed as residual activity at 1 uM after 1 hr by qPCR method relative to control.
For series [9], the target named is Bromodomain and PHD finger-containing protein 3 (Homo sapiens) (UniProt Q9ULD4). As to the kind of experiment: Inhibition of human partial length BRPF3 (E588 to G701 residues) expressed in Escherichia coli BL21 assessed as residual activity at 1 uM after 1 hr by qPCR method relative to control.
Chain of Bromodomain and PHD finger-containing protein 3 (Homo sapiens) (Q9ULD4 whole entry, the tested form may be a part): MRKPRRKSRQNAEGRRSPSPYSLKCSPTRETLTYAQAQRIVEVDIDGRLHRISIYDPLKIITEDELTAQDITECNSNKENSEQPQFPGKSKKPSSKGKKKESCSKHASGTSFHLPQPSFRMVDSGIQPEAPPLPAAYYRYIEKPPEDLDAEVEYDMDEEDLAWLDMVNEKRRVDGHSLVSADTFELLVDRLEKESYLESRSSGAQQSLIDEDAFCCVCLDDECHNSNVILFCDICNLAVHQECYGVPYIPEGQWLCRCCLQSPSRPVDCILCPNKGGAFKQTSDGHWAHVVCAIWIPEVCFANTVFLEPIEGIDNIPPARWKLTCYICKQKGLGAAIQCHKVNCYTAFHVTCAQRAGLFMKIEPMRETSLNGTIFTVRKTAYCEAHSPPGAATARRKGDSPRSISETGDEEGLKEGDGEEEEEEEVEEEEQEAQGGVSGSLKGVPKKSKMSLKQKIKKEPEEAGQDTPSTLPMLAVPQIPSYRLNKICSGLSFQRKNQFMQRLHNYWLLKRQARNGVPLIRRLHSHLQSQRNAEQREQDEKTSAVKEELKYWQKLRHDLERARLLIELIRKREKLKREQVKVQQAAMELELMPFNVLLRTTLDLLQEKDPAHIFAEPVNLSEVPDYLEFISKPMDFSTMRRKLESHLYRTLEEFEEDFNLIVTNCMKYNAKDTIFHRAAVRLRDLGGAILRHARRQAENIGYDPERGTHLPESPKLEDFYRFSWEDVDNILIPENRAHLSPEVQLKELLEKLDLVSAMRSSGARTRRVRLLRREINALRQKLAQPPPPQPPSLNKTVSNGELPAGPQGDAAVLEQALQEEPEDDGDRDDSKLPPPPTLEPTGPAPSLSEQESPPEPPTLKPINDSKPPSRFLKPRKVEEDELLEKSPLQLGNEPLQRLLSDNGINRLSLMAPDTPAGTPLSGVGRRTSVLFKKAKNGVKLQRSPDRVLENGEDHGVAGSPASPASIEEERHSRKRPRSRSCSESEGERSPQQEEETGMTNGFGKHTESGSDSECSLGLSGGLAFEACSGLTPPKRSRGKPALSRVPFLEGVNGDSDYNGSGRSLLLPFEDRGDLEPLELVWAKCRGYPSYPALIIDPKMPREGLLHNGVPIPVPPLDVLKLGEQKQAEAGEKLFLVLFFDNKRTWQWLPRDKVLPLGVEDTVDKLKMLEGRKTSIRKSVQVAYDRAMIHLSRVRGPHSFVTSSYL
In series [10] the target is Transcription initiation factor TFIID subunit 1 (Homo sapiens) (UniProt P21675). The series is described as follows: Inhibition of human partial length TAF1 bromodomain 2 (D1521 to D1656 residues) expressed in Escherichia coli BL21 assessed as residual activity at 1 uM after 1 hr by qPCR method relative to control.
In series [11] the target is Histone acetyltransferase p300 (Homo sapiens) (UniProt Q09472). The series is described as follows: Inhibition of human partial length EP300 (A1040 to G1161 residues) expressed in Escherichia coli BL21 assessed as residual activity at 1 uM after 1 hr by qPCR method relative to control.
Series [12] in a line: Tmax in ICR (CD-1) mouse at 10 mg/kg, po. The note with it: in vivo. The class given is ADME, organism-based.
Series [13] has as its target Protein polybromo-1 (Homo sapiens) (UniProt Q86U86). As to the kind of experiment: Inhibition of human partial length PBRM1 bromodomain 2 (S178 to E291 residues) expressed in Escherichia coli BL21 assessed as residual activity at 1 uM after 1 hr by qPCR method relative to control.
In series [14] the target is Nucleosome-remodeling factor subunit BPTF (Homo sapiens) (UniProt Q12830). As to the kind of experiment: Inhibition of human partial length FALZ (S2791 to H2911 residues) expressed in Escherichia coli BL21 assessed as residual activity at 1 uM after 1 hr by qPCR method relative to control.
A short description of series [15]: Cmax in ICR (CD-1) mouse at 10 mg/kg, po. The series is classed as ADME, organism-based. On the set-up: dose 10 mg/kg, route oral. Particulars: in vivo.

Bounds are passed on as bounds.

Chain of Chromatin remodeling regulator CECR2 (Homo sapiens) (Q9BXF3 whole entry, looked up, the tested form may be a part): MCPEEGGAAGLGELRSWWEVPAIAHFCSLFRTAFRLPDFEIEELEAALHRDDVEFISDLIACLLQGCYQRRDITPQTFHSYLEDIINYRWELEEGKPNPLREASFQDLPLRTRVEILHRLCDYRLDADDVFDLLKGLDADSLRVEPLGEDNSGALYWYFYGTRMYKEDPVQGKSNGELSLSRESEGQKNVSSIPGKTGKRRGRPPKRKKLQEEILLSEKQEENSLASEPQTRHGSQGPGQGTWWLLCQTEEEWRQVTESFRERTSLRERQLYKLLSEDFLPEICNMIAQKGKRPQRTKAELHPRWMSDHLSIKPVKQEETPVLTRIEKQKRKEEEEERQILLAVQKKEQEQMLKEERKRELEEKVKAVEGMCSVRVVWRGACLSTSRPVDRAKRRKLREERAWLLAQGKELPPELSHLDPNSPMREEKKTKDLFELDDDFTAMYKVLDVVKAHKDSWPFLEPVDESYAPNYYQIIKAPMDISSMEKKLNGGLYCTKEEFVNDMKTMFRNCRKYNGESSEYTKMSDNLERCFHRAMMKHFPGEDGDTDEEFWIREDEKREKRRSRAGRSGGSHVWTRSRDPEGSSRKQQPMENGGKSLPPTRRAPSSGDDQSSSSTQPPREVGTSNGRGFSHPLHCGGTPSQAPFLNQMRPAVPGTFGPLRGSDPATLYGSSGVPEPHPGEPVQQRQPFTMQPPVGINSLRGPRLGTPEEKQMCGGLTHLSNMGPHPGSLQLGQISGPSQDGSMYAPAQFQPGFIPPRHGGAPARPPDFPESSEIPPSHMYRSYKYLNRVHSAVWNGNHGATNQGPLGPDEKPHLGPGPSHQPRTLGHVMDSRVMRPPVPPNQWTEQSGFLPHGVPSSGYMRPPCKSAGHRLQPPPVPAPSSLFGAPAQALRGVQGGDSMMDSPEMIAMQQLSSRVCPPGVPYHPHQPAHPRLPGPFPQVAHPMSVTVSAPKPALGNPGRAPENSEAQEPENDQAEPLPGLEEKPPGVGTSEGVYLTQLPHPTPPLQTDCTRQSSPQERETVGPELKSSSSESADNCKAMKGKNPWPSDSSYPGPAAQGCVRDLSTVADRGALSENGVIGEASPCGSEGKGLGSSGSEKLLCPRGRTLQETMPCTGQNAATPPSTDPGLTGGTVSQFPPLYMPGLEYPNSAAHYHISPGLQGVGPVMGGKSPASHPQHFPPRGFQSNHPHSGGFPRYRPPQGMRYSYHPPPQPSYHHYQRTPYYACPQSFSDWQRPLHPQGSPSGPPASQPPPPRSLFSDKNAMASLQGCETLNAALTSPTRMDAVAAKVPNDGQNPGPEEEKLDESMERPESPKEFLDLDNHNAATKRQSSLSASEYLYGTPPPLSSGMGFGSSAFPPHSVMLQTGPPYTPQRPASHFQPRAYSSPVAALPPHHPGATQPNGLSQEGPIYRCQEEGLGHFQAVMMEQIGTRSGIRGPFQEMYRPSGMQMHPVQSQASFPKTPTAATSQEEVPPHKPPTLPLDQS
Chain of Protein polybromo-1 (Homo sapiens) (Q86U86 whole entry, the tested form may be a part): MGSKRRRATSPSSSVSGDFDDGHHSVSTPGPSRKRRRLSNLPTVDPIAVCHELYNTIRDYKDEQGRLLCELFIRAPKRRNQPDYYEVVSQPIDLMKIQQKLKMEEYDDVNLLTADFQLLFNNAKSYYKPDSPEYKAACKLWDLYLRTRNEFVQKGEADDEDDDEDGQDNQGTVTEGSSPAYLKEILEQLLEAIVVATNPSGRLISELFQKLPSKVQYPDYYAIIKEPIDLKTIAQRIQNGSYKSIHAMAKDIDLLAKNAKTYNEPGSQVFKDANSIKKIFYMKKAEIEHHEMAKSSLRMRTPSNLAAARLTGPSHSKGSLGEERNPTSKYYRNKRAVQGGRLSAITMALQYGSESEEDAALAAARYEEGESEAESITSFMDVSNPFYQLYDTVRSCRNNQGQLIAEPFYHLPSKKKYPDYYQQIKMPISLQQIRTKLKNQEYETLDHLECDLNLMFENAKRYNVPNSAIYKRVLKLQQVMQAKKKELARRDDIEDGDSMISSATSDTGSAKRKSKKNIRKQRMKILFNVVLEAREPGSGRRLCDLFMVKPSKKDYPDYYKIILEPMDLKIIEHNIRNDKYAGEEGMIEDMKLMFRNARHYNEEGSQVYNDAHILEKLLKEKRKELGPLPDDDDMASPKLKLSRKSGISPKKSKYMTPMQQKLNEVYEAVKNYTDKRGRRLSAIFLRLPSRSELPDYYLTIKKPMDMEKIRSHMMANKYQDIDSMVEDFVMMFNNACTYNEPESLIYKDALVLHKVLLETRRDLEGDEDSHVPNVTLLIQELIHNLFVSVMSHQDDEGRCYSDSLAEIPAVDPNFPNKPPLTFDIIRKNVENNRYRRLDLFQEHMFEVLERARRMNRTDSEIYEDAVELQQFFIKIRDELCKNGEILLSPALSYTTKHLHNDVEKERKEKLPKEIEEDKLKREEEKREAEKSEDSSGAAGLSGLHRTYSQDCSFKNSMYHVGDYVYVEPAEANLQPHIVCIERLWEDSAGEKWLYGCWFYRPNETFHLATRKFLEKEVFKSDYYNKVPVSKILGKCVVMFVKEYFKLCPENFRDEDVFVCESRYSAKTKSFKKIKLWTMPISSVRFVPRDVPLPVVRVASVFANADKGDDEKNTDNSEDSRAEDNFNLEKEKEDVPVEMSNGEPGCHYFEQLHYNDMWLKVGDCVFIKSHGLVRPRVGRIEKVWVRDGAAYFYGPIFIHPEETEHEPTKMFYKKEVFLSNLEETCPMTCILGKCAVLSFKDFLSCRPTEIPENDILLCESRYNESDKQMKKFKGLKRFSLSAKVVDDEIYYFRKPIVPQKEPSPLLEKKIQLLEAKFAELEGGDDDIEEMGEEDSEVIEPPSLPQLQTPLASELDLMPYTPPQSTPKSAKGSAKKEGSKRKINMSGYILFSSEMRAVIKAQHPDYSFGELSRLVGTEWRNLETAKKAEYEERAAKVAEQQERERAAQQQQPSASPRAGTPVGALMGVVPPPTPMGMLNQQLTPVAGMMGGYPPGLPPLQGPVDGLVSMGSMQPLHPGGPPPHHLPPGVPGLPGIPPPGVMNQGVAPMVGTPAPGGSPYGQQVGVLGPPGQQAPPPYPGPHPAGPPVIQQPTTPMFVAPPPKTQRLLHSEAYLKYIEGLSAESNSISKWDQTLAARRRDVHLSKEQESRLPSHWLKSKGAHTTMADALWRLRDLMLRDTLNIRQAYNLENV

For orientation: half-life means the time needed for the level to fall by half in the phase considered. Lower therefore signals rapid decline. Usually IC50 stands for the concentration that inhibits the measured activity by half. The Tmax is the time from dosing to the highest level. The Cmax is the highest concentration seen after dosing. `Cc1ccc([C@H](C)Nc2ccc3c(c2)N(C2CC2)[C@H](C)C(=O)N3C)c(C)c1` gave a concentration at 24 h in [1] of less than 0.3 ng/mL. Further, the Activity in [2] came out at 83%; on Peregrin (Homo sapiens), 100%; in series [3] it was 73%; in [5] it was 63%; in [6] it was 83%; in series [8], 0%. Moreover, the Activity in series [9] stood at 100%; in [10], 85%; in series [11], 47%; in series [13] it was 100%; in series [14] it was 96%. Further, the half-life in series [4] was 2.23 h. In [7], the IC50 was determined as 45 nM. Further, the Tmax in series [12] turned out to be 0.33 h. In series [15], this compound had a Cmax of 869 ng/mL.
